Source: patent publication US12043600B2, “Microbiocidal compounds” (SYNGENTA CROP PROTECTION AG, priority 2018, dated 2024)

Assays:
Alternaria solani = experiment: Alternaria solani/Tomato/Leaf Disc (Early Blight); format: in vivo; conditions: foliar, tomato leaf disc, compared to untreated control
Method in brief: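 Protective leaf-disc test: compound sprayed onto tomato cv. Baby disks, spore inoculation following after 2 days. Disks kept at 80% rh, 12/12 h light/dark, 23° C. day and 21° C. night; activity read as percent disease control relative to untreated checks 5-7 days post-application.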

[1] = test system: Botryotinia fuckeliana (Botrytis cinerea); experiment: Botryotinia fuckeliana (Botrytis cinerea)/Liquid Culture (Gray Mould); format: cell-based; conditions: liquid culture, compared to untreated control
Description: Conidia of the fungus from cryogenic storage are directly mixed into nutrient broth (Vogels broth). After placing a (DMSO) solution of test compound into a microtiter plate (96-well format), the nutrient broth containing the fungal spores is added.

[2] = test system: Glomerella lagenarium (Colletotrichum lagenarium); experiment: Glomerella lagenarium (Colletotrichum lagenarium)/Liquid Culture (Anthracnose); format: cell-based; conditions: Colletotrichum orbiculare, liquid culture, compared to untreated control
[3] = test system: Phaeosphaeria nodorum (Septoria nodorum); experiment: Phaeosphaeria nodorum (Septoria nodorum)/Wheat/Leaf Disc Preventative (Glume Blotch); format: in vivo; conditions: Parastagonospora nodorum, foliar, wheat leaf disc preventative, compared to untreated control
Method in brief: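 Preventative test: compound spray first, then spore inoculation after 2 days on cv. Kanzler wheat leaf segments. Incubation in a climate cabinet at 20 °C and 75% rh under a 12 h light/12 h dark cycle. Activity rated as % control relative to untreated discs at 5–7 days post-application.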

[4] = test system: Monographella nivalis (Microdochium nivale); experiment: Monographella nivalis (Microdochium nivale)/Liquid Culture (Foot Rot Cereals); format: cell-based; conditions: liquid culture, compared to untreated control
Method in brief: (§1)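 Liquid-culture format using potato dextrose broth inoculated directly with cryopreserved conidia, dosed with compound from a DMSO solution.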

[5] = test system: Mycosphaerella arachidis (Cercospora arachidicola); experiment: Mycosphaerella arachidis (Cercospora arachidicola)/Liquid Culture (Early Leaf Spot); format: cell-based; conditions: liquid culture, compared to untreated control
Method in brief: as §1

Phakopsora pachyrhizi = experiment: Phakopsora pachyrhizi/Soybean/Preventative (Soybean Rust); format: in vivo; conditions: foliar, 288 h, 200 ppm, soybean leaf disc preventative, compared to untreated control, read-out: control of Phakopsora pachyrhizi
Phytophthora infestans = experiment: whole plant or invertebrate; format: in vivo; conditions: in Solanum lycopersicum, foliar, read-out: control of Phytophthora infestans
Plasmopara viticola = experiment: whole plant or invertebrate; format: in vivo; conditions: foliar, read-out: control of Plasmopara viticola
[6] = test system: Puccinia recondita f. sp. tritici; experiment: Puccinia recondita f. sp. tritici/Wheat/Leaf Disc Curative (Brown Rust); format: in vivo; conditions: foliar, wheat leaf disc curative, compared to untreated control
Method in brief: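 Formulated compound, diluted in water, is applied to inoculated wheat cv. Kanzler leaf segments on agar one day post-inoculation (pre-incubation dark, 19° C, 75% rh). After 6-8 days at 19° C, 75% rh and 12 h/12 h light, activity is rated as percent disease control relative to untreated segments.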

[7] = test system: Puccinia recondita f. sp. tritici; experiment: Puccinia recondita f. sp. tritici/Wheat/Leaf Disc Preventative (Brown Rust); format: in vivo; conditions: foliar, 200 ppm, wheat leaf disc preventative, compared to untreated control, read-out: control of Puccinia recondita f. sp. tritici
[8] = test system: Magnaporthe grisea (Pyricularia oryzae); experiment: whole plant or invertebrate; format: in vivo; conditions: foliar, read-out: control of Magnaporthe grisea
[9] = test system: Thanatephorus cucumeris (Rhizoctonia solani); experiment: Thanatephorus cucumeris (Rhizoctonia solani)/Liquid Culture (Foot Rot, Damping-Off); format: cell-based; conditions: liquid culture, compared to untreated control
Description: Mycelia fragments of a newly grown liquid culture of the fungus are directly mixed into nutrient broth (PDB potato dextrose broth). After placing a (DMSO) solution of the test compounds into a microtiter plate (96-well format), the nutrient broth containing the fungal material is added.

[10] = test system: Mycosphaerella graminicola (Septoria tritici); experiment: Mycosphaerella graminicola (Septoria tritici)/Liquid Culture (Septoria Blotch); format: cell-based; conditions: Zymoseptoria tritici; 20 ppm; liquid culture; compared to untreated control
Method in brief: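 Results given as % disease control: test compound in DMSO was placed in wells first, then potato dextrose broth carrying cryostored fungal conidia was added.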

[11] = test system: Blumeria graminis f. sp. tritici (Erysiphe graminis f. sp. tritici); experiment: Blumeria graminis f. sp. tritici/Wheat/Leaf Disc Preventative (Powdery Mildew on Wheat); format: in vivo; conditions: foliar, wheat leaf disc preventative, compared to untreated control
Method in brief: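 Preventative leaf-disc test: percent disease control versus untreated leaf segments read 6-8 days post-application. Compound spray applied to wheat cv. Kanzler segments on agar one day before shaking infected plants over them; incubation at 20° C and 60% rh, 24 h darkness then 12 h light/12 h dark cycles.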

Pyrenophora teres = experiment: Pyrenophora teres/Barley/Leaf Disc Preventative (Net Blotch); format: in vivo; conditions: foliar, 200 ppm, barley leaf disc preventative, compared to untreated control, read-out: control of Pyrenophora teres
Method in brief: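 Preventative leaf-disc test: inoculation with fungal spores took place 2 days after spraying segments of barley cv. Hasso, placed on agar, with water-diluted formulated compound. Read-out is % disease control per compound.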

SMILES | pest or weed control at 200 ppm (Alternaria solani) [%] | inhibition of growth at 20 ppm [1] [%] | inhibition of growth at 20 ppm [2] [%] | pest or weed control at 200 ppm [3] [%] | inhibition of growth at 20 ppm [4] [%] | inhibition of growth at 20 ppm [5] [%] | pest or weed control at 200 ppm (Phakopsora pachyrhizi) [%] | pest or weed control at 200 ppm (Phytophthora infestans) [%] | pest or weed control at 200 ppm (Plasmopara viticola) [%] | pest or weed control at 200 ppm [6] [%] | pest or weed control at 200 ppm [7] [%] | pest or weed control at 200 ppm [8] [%] | inhibition of growth at 20 ppm [9] [%] | inhibition of growth at 20 ppm [10] [%] | melting point [°C] | pest or weed control at 200 ppm [11] [%] | pest or weed control at 200 ppm (Pyrenophora teres) [%]
CO/C=C(\Oc1cc(-n2ccc(C(C)=NOC)n2)ccc1C)C(=O)OC [Compound E-30, methyl (Z)-3-methoxy-2-[5-[3-(N-methoxy-C-methyl-carbonimidoyl)pyrazol-1-yl]-2-methyl-phenoxy]prop-2-enoate] | ≥ 80 | ≥ 80 | ≥ 80 | ≥ 80 | ≥ 80 | ≥ 80 | ≥ 50 | ≥ 80 | ≥ 80 | ≥ 80 | ≥ 80 | ≥ 80 | ≥ 80 | ≥ 80 | 130 to 133 |  | 
CO/C=C(\Oc1cc(C)cc(-n2ccc(C(F)(F)F)n2)c1)C(=O)OC [Compound E-34, methyl (Z)-3-methoxy-2-[3-methyl-5-[3-(trifluoromethyl)pyrazol-1-yl]phenoxy]prop-2-enoate] | ≥ 80 | ≥ 80 | ≥ 80 |  | ≥ 80 | ≥ 80 |  | ≥ 80 | ≥ 80 |  | ≥ 80 | ≥ 80 | ≥ 80 | ≥ 80 |  | ≥ 80 | ≥ 80
CO/C=C(\Oc1cc(-n2ccc(C3=CCCCC3)n2)ccc1C)C(=O)OC [Compound E-39, methyl (Z)-2-[5-[3-(cyclohexen-1-yl)pyrazol-1-yl]-2-methyl-phenoxy]-3-methoxy-prop-2-enoate] | ≥ 80 | ≥ 80 | ≥ 80 |  | ≥ 80 | ≥ 80 |  | ≥ 80 | ≥ 80 | ≥ 80 | ≥ 80 | ≥ 80 | ≥ 80 | ≥ 80 | 108 to 110 | ≥ 80 | ≥ 80
CO/C=C(\Oc1cc(-n2cc(C3CCCC3)cn2)ccc1C)C(=O)OC [Compound E-58, methyl (Z)-2-[5-(4-cyclopentylpyrazol-1-yl)-2-methyl-phenoxy]-3-methoxy-prop-2-enoate] | ≥ 80 | ≥ 80 | ≥ 80 | ≥ 80 | ≥ 80 | ≥ 80 | ≥ 50 | ≥ 80 | ≥ 80 | ≥ 80 | ≥ 80 | ≥ 80 | ≥ 80 | ≥ 80 |  | ≥ 80 | 
